Data as given in patent publication US5440016A, “Peptides of the formula (KFmoc) ZZZ and their uses” (priority 1993, dated 1995).
In brackets after ≈: the same amount, converted by molar mass. Where two headings read alike, the source gives them in different places. Square brackets hold non-standard residues; d marks the D form. Ends that are not written are not given here. Peptide text beside a SMILES is read from it. * marks the point of attachment. Fmoc = O=C(OCC1c2ccccc2-c2ccccc21)*

Experiments:
[1] = test system: Human red blood cells (RBCs); assay: Hemolytic activity; format: cell-based; conditions: Tables 18-21
Protocol: Each assay was carried out in 96-well culture tissue plates. Four wells per plate contain 125 μl of a non-peptide positive control (1% Triton in de-ionized water), and four wells per plate contain 125 μl of a control blank, phosphate buffered saline (PBS). The hemolytic peptide melittin was used as comparative control. The controls served to detect possible contamination and to calculate the percent hemolysis of each peptide. Human red blood cells (RBCs) were washed with PBS and centrifuged to separate them from the serum. The cells were then resuspended in PBS to a final suspension of 0.5% RBC. 125 μl of this suspension was added to the peptides and controls solution. The release of hemoglobin resulting from the cell lysis was determined by measuring the OD at 414 nm of 100 μl of the supernatant.

[2] = test system: Escherichia coli ATCC 25922
Protocol: (§1) Escherichia coli ATCC 25922 and P. aeruginosa ATCC 27853 were used as Gram-negative (-) and Staphylococcus aureus ATCC 29213 as Gram-positive (+) bacteria. Bacteria were grown overnight at 37° C. in Mueller-Hinton (MH) broth. This culture was reinoculated and incubated at 37° C. to reach the exponential phase of bacteria growth, i.e., a final bacterial suspension containing 10^5 to 5×10^5 colony-forming units (CFU)/ml. The concentration of cells was established by plating 100 μl of different dilutions of the culture solution (e.g., 10^-2, 10^-3 and 10^-4) onto solid agar plates.
(§2) Following an overnight incubation at 37° C., the CFU thus formed were counted on each agar plate. In 96-well tissue culture plates, as control blanks, eight wells per plate contained only medium, while as a positive growth control, eight other wells contained medium plus cells.
(§3) The plates were incubated overnight at 37° C., and the optical density (OD) determined at 620 nm after different times of incubation.

[3] = test system: Staphylococcus aureus ATCC 29213
Protocol: as §1, §2, §3

[4] = test system: Streptococcus sanguis ATCC 10556
Protocol: Streptococcus sanguis ATCC 10556 (Gram-positive (+) bacteria present in tooth crevices) was grown overnight at 37° C. in Brain Heart Infusion (BHI) broth. This culture was reinoculated and incubated at 37° C. to reach the exponential phase of bacteria growth, i.e., a final bacterial suspension containing 10^5 to 5×10^5 colony-forming units (CFU)/ml. The concentration of cells was established by plating 100 μl of different dilutions of the culture solution (e.g., 10^-2, 10^-4) and 10^-4) onto solid agar plates. Following an overnight incubation at 37° C., the CFU thus formed were counted on each agar plate. In 96-well tissue culture plates, as control blanks, eight wells per plate contained only medium, while as a positive growth control, eight other wells contained medium plus cells. […] The plates were incubated overnight at 37° C., and the optical density (OD) determined at 620 nm after 20 to 24 hours incubation.

[5] = test system: Candida albicans ATCC 10231
melittin = melittin (Apis mellifera, UniProt P01501); assay: cell-based; conditions: read-out: IC50, inhibition of melittin (converted)
[6] = Tables 2-5, concentration necessary to inhibit 50% growth
[7] = Tables 7-9, lower parts (unnatural amino acids)
[8] = Tables 11-13, lower parts (unnatural amino acids)
[9] = Tables 3-5, lower parts (unnatural amino acids)
[10] = Tables 15-17, lower parts (unnatural amino acids)

Sequence of melittin (P01501 44-69 limits assumed): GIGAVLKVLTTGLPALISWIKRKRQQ

Compound | IC50 against S. aureus ([3]; Tables 6-9) | IC50 against S. sanguis ([4]; Tables 10-13) | IC50 (melittin) | also measured
C[C@@H](NC(=O)[C@H](CCCCN)NC(=O)[C@H](Cc1c[nH]c2ccccc12)NC(=O)[C@H](CCCCN)NC(=O)OCC1c2ccccc2-c2ccccc21)C(N)=O [(KFmoc)WKa-NH2] (Fmoc-KWK[dA]-NH2) | 7 µg/mL (≈ 9.3 µM) | 8 µg/mL (≈ 10.6 µM) |  | HD50 (concentration necessary to lyse 50% of the cells) [1]: 437 µg/mL; IC50 against E. coli [2, 6]: 60 µg/mL (≈ 79.7 µM); IC50 against C. albicans ([5]; Tables 14-17): 200 µg/mL (≈ 266 µM)
NCCCC[C@H](NC(=O)OCC1c2ccccc2-c2ccccc21)C(=O)N[C@@H](Cc1c[nH]c2ccccc12)C(=O)N[C@@H](CCCCN)C(=O)N[C@H](CS)C(N)=O [(KFmoc)WKc-NH2] (Fmoc-KWK[dC]-NH2) | 4 µg/mL (≈ 5.1 µM) | 4 µg/mL (≈ 5.1 µM) |  | HD50 (concentration necessary to lyse 50% of the cells) [1]: 25 µg/mL; IC50 against E. coli [2, 6]: 23 µg/mL (≈ 29.3 µM); IC50 against C. albicans ([5]; Tables 14-17): 243 µg/mL (≈ 310 µM)
NCCCC[C@H](NC(=O)OCC1c2ccccc2-c2ccccc21)C(=O)N[C@@H](Cc1c[nH]c2ccccc12)C(=O)N[C@@H](CCCCN)C(=O)N[C@H](Cc1ccccc1)C(N)=O [(KFmoc)WKf-NH2] (Fmoc-KWK[dF]-NH2) | 10 µg/mL (≈ 12.1 µM) | 6 µg/mL (≈ 7.24 µM) |  | HD50 (concentration necessary to lyse 50% of the cells) [1]: 126 µg/mL; IC50 against E. coli [2, 6]: 38 µg/mL (≈ 45.8 µM); IC50 against C. albicans ([5]; Tables 14-17): 133 µg/mL (≈ 160 µM)
NCCCC[C@H](NC(=O)OCC1c2ccccc2-c2ccccc21)C(=O)N[C@@H](Cc1c[nH]c2ccccc12)C(=O)N[C@@H](CCCCN)C(=O)N[C@H](Cc1c[nH]cn1)C(N)=O [(KFmoc)WKh-NH2] (Fmoc-KWK[dH]-NH2) | 6 µg/mL (≈ 7.33 µM) | 6 µg/mL (≈ 7.33 µM) |  | HD50 (concentration necessary to lyse 50% of the cells) [1]: 313 µg/mL; IC50 against E. coli [2, 6]: 52 µg/mL (≈ 63.5 µM); IC50 against C. albicans ([5]; Tables 14-17): 156 µg/mL (≈ 190 µM)
CC[C@@H](C)[C@@H](NC(=O)[C@H](CCCCN)NC(=O)[C@H](Cc1c[nH]c2ccccc12)NC(=O)[C@H](CCCCN)NC(=O)OCC1c2ccccc2-c2ccccc21)C(N)=O [(KFmoc)WKi-NH2] (Fmoc-KWK[dI]-NH2) | 9 µg/mL (≈ 11.3 µM) | 8 µg/mL (≈ 10.1 µM) |  | HD50 (concentration necessary to lyse 50% of the cells) [1]: 296 µg/mL; IC50 against E. coli [2, 6]: 23 µg/mL (≈ 28.9 µM); IC50 against C. albicans ([5]; Tables 14-17): 209 µg/mL (≈ 263 µM)
NCCCC[C@H](NC(=O)OCC1c2ccccc2-c2ccccc21)C(=O)N[C@@H](Cc1c[nH]c2ccccc12)C(=O)N[C@@H](CCCCN)C(=O)N[C@H](CCCCN)C(N)=O [(KFmoc)WKk-NH2] (Fmoc-KWK[dK]-NH2) | 8 µg/mL (≈ 9.88 µM) | 7 µg/mL (≈ 8.64 µM) |  | IC50 against C. albicans ([5]; Tables 14-17): 126 µg/mL (≈ 156 µM)
CC(C)C[C@@H](NC(=O)[C@H](CCCCN)NC(=O)[C@H](Cc1c[nH]c2ccccc12)NC(=O)[C@H](CCCCN)NC(=O)OCC1c2ccccc2-c2ccccc21)C(N)=O [(KFmoc)WKl-NH2] (Fmoc-KWK[dL]-NH2) | 5 µg/mL (≈ 6.29 µM) | 5 µg/mL (≈ 6.29 µM) |  | HD50 (concentration necessary to lyse 50% of the cells) [1]: 166 µg/mL; IC50 against E. coli [2, 6]: 20 µg/mL (≈ 25.2 µM); IC50 against C. albicans ([5]; Tables 14-17): 121 µg/mL (≈ 152 µM)
CSCC[C@@H](NC(=O)[C@H](CCCCN)NC(=O)[C@H](Cc1c[nH]c2ccccc12)NC(=O)[C@H](CCCCN)NC(=O)OCC1c2ccccc2-c2ccccc21)C(N)=O [(KFmoc)WKm-NH2] (Fmoc-KWK[dM]-NH2) | 7 µg/mL (≈ 8.61 µM) | 7 µg/mL (≈ 8.61 µM) |  | HD50 (concentration necessary to lyse 50% of the cells) [1]: 178 µg/mL; IC50 against E. coli [2, 6]: 41 µg/mL (≈ 50.4 µM); IC50 against C. albicans ([5]; Tables 14-17): 163 µg/mL (≈ 200 µM)
NCCCC[C@H](NC(=O)OCC1c2ccccc2-c2ccccc21)C(=O)N[C@@H](Cc1c[nH]c2ccccc12)C(=O)N[C@@H](CCCCN)C(=O)N[C@H](CC(N)=O)C(N)=O [(KFmoc)WKn-NH2] (Fmoc-KWK[dN]-NH2) | 10 µg/mL (≈ 12.6 µM) | 8 µg/mL (≈ 10.1 µM) |  | IC50 against E. coli [2, 6]: 47 µg/mL (≈ 59 µM); IC50 against C. albicans ([5]; Tables 14-17): 233 µg/mL (≈ 293 µM)
NCCCC[C@H](NC(=O)OCC1c2ccccc2-c2ccccc21)C(=O)N[C@@H](Cc1c[nH]c2ccccc12)C(=O)N[C@@H](Cc1ccc(O)cc1)C(=O)N[C@H](CS)C(N)=O [(KFmoc)WYc-NH2] (Fmoc-KWY[dC]-NH2) | 21 µg/mL (≈ 25.6 µM) | 42 µg/mL (≈ 51.2 µM) |  | 
NCCCC[C@H](NC(=O)OCC1c2ccccc2-c2ccccc21)C(=O)N[C@@H](Cc1c[nH]c2ccccc12)C(=O)N[C@@H](Cc1ccc(O)cc1)C(=O)N[C@H](CC(N)=O)C(N)=O [(KFmoc)WYn-NH2] (Fmoc-KWY[dN]-NH2) | 6 µg/mL (≈ 7.22 µM) | 8 µg/mL (≈ 9.63 µM) |  | HD50 (concentration necessary to lyse 50% of the cells) [1]: 257 µg/mL
CC[C@@H](C)[C@@H](NC(=O)[C@@H](Cc1ccccc1)NC(=O)[C@H](Cc1c[nH]c2ccccc12)NC(=O)[C@H](CCCCN)NC(=O)OCC1c2ccccc2-c2ccccc21)C(N)=O [(KFmoc)Wfi-NH2] (Fmoc-KW[dF][dI]-NH2) | 4 µg/mL (≈ 4.91 µM) | 4 µg/mL (≈ 4.91 µM) |  | 
NCCCC[C@H](NC(=O)OCC1c2ccccc2-c2ccccc21)C(=O)N[C@@H](Cc1c[nH]c2ccccc12)C(=O)N[C@H](Cc1ccccc1)C(=O)N[C@H](Cc1ccc(O)cc1)C(N)=O [(KFmoc)Wfy-NH2] (Fmoc-KW[dF][dY]-NH2) | 15 µg/mL (≈ 17.4 µM) | 17 µg/mL (≈ 19.7 µM) |  | 
CC[C@@H](C)[C@@H](NC(=O)[C@@H](CS)NC(=O)[C@H](CCCCN)NC(=O)OCC1c2ccccc2-c2ccccc21)C(=O)N[C@H](C)C(N)=O [(KFmoc)cia-NH2] (Fmoc-K[dC][dI][dA]-NH2) |  | 59 µg/mL (≈ 90.1 µM) |  | HD50 (concentration necessary to lyse 50% of the cells) [1]: 77 µg/mL
CC[C@@H](C)[C@@H](NC(=O)[C@@H](CS)NC(=O)[C@H](CCCCN)NC(=O)OCC1c2ccccc2-c2ccccc21)C(=O)N[C@H](Cc1ccccc1)C(N)=O [(KFmoc)cif-NH2] (Fmoc-K[dC][dI][dF]-NH2) | 21 µg/mL (≈ 28.7 µM) |  |  | IC50 against C. albicans ([5]; Tables 14-17): 218 µg/mL (≈ 298 µM)
(KFmoc)WK(Cys[ACM])-NH2 | 11 µg/mL | 11 µg/mL |  | IC50 against E. coli [2, 6]: 49 µg/mL; IC50 against C. albicans ([5]; Tables 14-17): 303 µg/mL
(KFmoc)WK(Hyp)-NH2 | 10 µg/mL | 10 µg/mL |  | IC50 against E. coli [2, 6]: 62 µg/mL; IC50 against C. albicans ([5]; Tables 14-17): 370 µg/mL
(KFmoc)WK(KCBZ)-NH2 | 9 µg/mL | 9 µg/mL |  | IC50 against C. albicans ([5]; Tables 14-17): 161 µg/mL
(KFmoc)WY(Hyp)-NH2 |  |  |  | HD50 (concentration necessary to lyse 50% of the cells) [1]: 81 µg/mL; IC50 against S. aureus [3, 7]: 9 μg/m; IC50 against S. sanguis [4, 8]: 10 μg/m
(KFmoc)WY(KCBZ)-NH2 |  |  |  | IC50 against E. coli [2, 9]: 59 μg/m; IC50 against S. aureus [3, 7]: 9 μg/m; IC50 against S. sanguis [4, 8]: 9 μg/m; IC50 against C. albicans [5, 10]: 309 μg/m
(KFmoc)Wf(7aHa)-NH2 |  |  |  | IC50 against S. aureus [3, 7]: 7 μg/m; IC50 against S. sanguis [4, 8]: 10 μg/m
(KFmoc)Wf(Cys[ACM])-NH2 |  |  |  | IC50 against S. aureus [3, 7]: 18 μg/m; IC50 against S. sanguis [4, 8]: 30 μg/m
(KFmoc)ci(Thiopro)-NH2 |  |  |  | IC50 against E. coli [2, 9]: 25 μg/m; IC50 against S. aureus [3, 7]: 9 μg/m; IC50 against S. sanguis [4, 8]: 6 μg/m; IC50 against C. albicans [5, 10]: 197 μg/m
(KFmoc)ciG-NH2 |  | 23 µg/mL |  | HD50 (concentration necessary to lyse 50% of the cells) [1]: 35 µg/mL; IC50 against C. albicans ([5]; Tables 14-17): 372 µg/mL
Ac-IVILLW-NH2 [Ac-IVILLW-NH2] |  |  | 6.27 µM | 
Ac-IVILLY-NH2 [Ac-IVILLY-NH2] |  |  | 12.9 µM | 
Ac-IVILTA-NH2 [Ac-IVILTA-NH2] |  |  | 19.4 µM | 

Compound | IC50 against S. aureus ([3]; Tables 6-9) | IC50 against S. sanguis ([4]; Tables 10-13) | IC50 (melittin) | also measured
Ac-IVILTC-NH2 [Ac-IVILTC-NH2] |  |  | 27.1 µM | 
Ac-IVILTE-NH2 [Ac-IVILTE-NH2] |  |  | 33 µM | 
Ac-IVILTF-NH2 [Ac-IVILTF-NH2] |  |  | 13.4 µM | 
Ac-IVILTG-NH2 [Ac-IVILTG-NH2] |  |  | 33.5 µM | 
Ac-IVILTH-NH2 [Ac-IVILTH-NH2] |  |  | 76.1 µM | 
Ac-IVILTI-NH2 [Ac-IVILTI-NH2] |  |  | > 351 µM | 
Ac-IVILTK-NH2 [Ac-IVILTK-NH2] |  |  | > 344 µM | 
Ac-IVILTL-NH2 [Ac-IVILTL-NH2] |  |  | 14 µM | 
Ac-IVILTM-NH2 [Ac-IVILTM-NH2] |  |  | 12.3 µM | 
Ac-IVILTN-NH2 [Ac-IVILTN-NH2] |  |  | 19.6 µM | 
Ac-IVILTP-NH2 [Ac-IVILTP-NH2] |  |  | 70.4 µM | 
Ac-IVILTQ-NH2 [Ac-IVILTQ-NH2] |  |  | 15.1 µM | 
Ac-IVILTR-NH2 [Ac-IVILTR-NH2] |  |  | > 331 µM | 
Ac-IVILTS-NH2 [Ac-IVILTS-NH2] |  |  | 52.5 µM | 
Ac-IVILTT-NH2 [Ac-IVILTT-NH2] |  |  | 62.9 µM | 
Ac-IVILTV-NH2 [Ac-IVILTV-NH2] |  |  | 30.1 µM | 
Ac-IVILTW-NH2 [Ac-IVILTW-NH2] |  |  | 14 µM | 
Ac-IVILTY-NH2 [Ac-IVILTY-NH2] |  |  | 23.6 µM | 
Ac-MILWIE-NH2 [Ac-MILWIE-NH2] |  |  | 13 µM | 
Ac-VIQQFV-NH2 [Ac-VIQQFV-NH2] |  |  | 20.7 µM | 
Ac-WIQIFI-NH2 [Ac-WIQIFI-NH2] |  |  | 25.6 µM | 
DDEITF-NH2 [DDEITF-NH2] |  |  | 1630 µM | 
NDEIVF-NH2 [NDEIVF-NH2] |  |  | 853 µM | 
NDEIVI-NH2 [NDEIVI-NH2] |  |  | 444 µM | 
NEEIVF-NH2 [NEEIVF-NH2] |  |  | 1210 µM | 
NEEIVI-NH2 [NEEIVI-NH2] |  |  | 509 µM | 
